Measurements published in publication PMC10398685 (ACS Omega, 2023).
“Also recorded” adds a separate entry of the source.

Legend:
[1] = Steady-state intracellular uptake in CCRF-CEM cells; assay type: in vitro ADME; conditions: human, CCRF-CEM cells, 60 min incubation, 50 μM at t = 0, read-out: Kp (intracellular accumulation ratio IC/EC)
Excerpt: (§1) While an enzymatic MTase assay represents a valuable fast screening platform providing the information that can be directly used for SAR analyses, it is not fully predictive for the compounds’ activity in whole cells. In order to verify the ability of the compounds to reach the intracellular compartment, we measured the steady-state accumulation of representative compounds in intact CCRF-CEM, VERO-E6, and Calu-3 cells (Tables 3 and S2). […] Compound 12q was almost completely cleared from the medium after 60 min incubation with the cells rendering it among the most permeable compounds of the series based on Kp values. It should be noted that the apparent intracellular concentration of the compounds may be biased by their potential metabolism. Therefore, we decided to subject the selected derivatives to in vitro stability studies. […]
(§2) 3.3. Intracellular Uptake
(§3) Steady-state cellular uptake was measured in CCRF-CEM cells (ATCC, CRL-119), VERO-E6 cells (ATCC, CRL-1586) and Calu-3 cells (HTB-55), respectively. Suspension cells (CCRF-CEM) were treated as follows: Prior to the experiment, cells were washed by centrifugation (250 x g, 5 min) in prewarmed (37 °C) serum-free RPMI medium and resuspended in the same vehicle to a concentration of 2 x 10^7 cells per mL. The cell suspension was distributed into the microtubes in 500 μL aliquots (10^7 cells), and the uptake process was initiated by the addition of 2.5 μL of the 10 mM DMSO solutions of the compounds (50 μM final conc.). Samples were incubated for 60 min at 37 °C in a CO 2 incubator using a rotary stirrer. The uptake was terminated by centrifugation at 900 x g for 5 min, at +4 °C. The medium was stored at −20 °C for later analysis of the extracellular concentration of the compounds. The cells were washed two times with 1 mL PBS (900 x g, 5 min, +4 °C), and also stored at −20 °C for subsequent analysis of the intracellular concentration of the compounds. At the day of the analysis, both media and the pelleted cells were quickly thawed. The cell pellets were extracted with 200 μL of ice-cold methanol by vigorous shaking, further diluted 1:1 with water and centrifuged at 20 000 x g for 10 min. As for the media samples, 10 μL aliquots were extracted with 990 μL of 50% methanol. The samples were then transferred to ECHO® -compatible 384-well plates and the amount of analytes were quantified by the ECHO -MS® System (Sciex) where acoustic droplet ejection module is coupled with Sciex 6500® triple quadrupole mass spectrometer operating with an electrospray ionization source. Spectrometer was run in the multiple reaction monitoring (MRM) mode. When necessary, the processed samples were further diluted in 50% methanol to fit in the calibration range. Calibration curves of the compounds in 50% methanol were measured alongside the samples within the same run. The ra tio between the total compound concentration in the cells and compound concentration in the medium (K p) at t=60 min was calculated according to: Kp = (Acell / Vcell) / Cmedium, where Acell is the amount of compound in the cell lysate, Vcell is the CCRF-CEM cell volume (3.38 μL/10^7 cells)16 and Cmedium is the compound concentration in the medium sample after correcting for sample dilution. Experiments were performed in duplicates. […]

CCRF-CEM cells = assay: as above; assay type: in vitro ADME; conditions: 60 min incubation, 50 μM at t = 0
Excerpt: as §1, §2, §3

VERO-E6 cells = assay: Steady-state intracellular uptake in VERO-E6 cells; assay type: in vitro ADME; conditions: VERO-E6, 60 min incubation, 50 μM at t = 0
Excerpt: as §1, §2
(§4) Steady-state cellular uptake was measured in CCRF-CEM cells (ATCC, CRL-119), VERO-E6 cells (ATCC, CRL-1586) and Calu-3 cells (HTB-55), respectively. […]
(§5) The medium was stored at −20 °C […]
(§6) for later analysis of the extracellular concentration of the compounds. The cells were washed two times with 1 mL PBS (900 x g, 5 min, +4 °C), and also stored at −20 °C for subsequent analysis of the intracellular concentration of the compounds. At the day of the analysis, both media and the pelleted cells were quickly thawed. The cell pellets were extracted with 200 μL of ice-cold methanol by vigorous shaking, further diluted 1:1 with water and centrifuged at 20 000 x g for 10 min. As for the media samples, 10 μL aliquots were extracted with 990 μL of 50% methanol. The samples were then transferred to ECHO® -compatible 384-well plates and the amount of analytes were quantified by the ECHO -MS® System (Sciex) where acoustic droplet ejection module is coupled with Sciex 6500® triple quadrupole mass spectrometer operating with an electrospray ionization source. Spectrometer was run in the multiple reaction monitoring (MRM) mode. When necessary, the processed samples were further diluted in 50% methanol to fit in the calibration range. Calibration curves of the compounds in 50% methanol were measured alongside the samples within the same run. The ra tio between the total compound concentration in the cells and compound concentration in the medium (K p) at t=60 min was calculated according to: Kp = (Acell / Vcell) / Cmedium, where Acell is the amount of compound in the cell lysate, Vcell is the CCRF-CEM cell volume (3.38 μL/10^7 cells)16 and Cmedium is the compound concentration in the medium sample after correcting for sample dilution. Experiments were performed in duplicates.
(§7) For adherent cells (Vero E6 and Calu-3), the workflow was modified as follows: Cells were seeded on 6-well plates at a concentration of […] and 8.2 x 10^5 cells/well for Vero E6 and Calu-3, respectively, in 3 mL of serum-free culture media. The cells were left to attach overnight, the medium was then aspirated and replenished with 2 mL of fresh media containing the compounds (50 µM final conc). After 60 min at 37 °C the media was aspirated and the cells were washed twice with 1 mL of PBS. Then, 1 mL of fresh PBS was added and the cells were subjected to three freeze-thaw cycles and further diluted with 1:1 with MeOH. The cell lysates and the media were further processed as described above. Intracellular volume of Vero E6 and Calu-3 cells (8.6 and 14 μL/107 cells, respectively) was calculated from their diameter determined by cell counter (Luna FL) while in suspension (following the trypsinization) assuming the homogenous spheres.

[2] = Microsomal stability, mouse; assay type: in vitro ADME; conditions: triplicates; for Microsomal stability Rem. at 45 min / Microsomal stability T1/2: 0.5 mg/ml mouse microsomes, 5uM; for microsomal CLint at 5 µM / half-life at 5 µM: pH 7.4, 0.5 mg/ml mouse microsomes; for half-life at 5 µM: read-out: Microsomal stability T1/2
SARS-CoV-2 = assay: microbe, parasite or virus in culture; assay type: cell-based; conditions: Severe acute respiratory syndrome coronavirus 2, Vero C1008, 72 h; VeroE6 cells, MOI~0.03, 3 days incubation, CPE by XTT; read-out: EC50 (anti-SARS-CoV-2 activity)
in vitro = conditions: human
[3] = Steady-state intracellular uptake in VERO-E6 cells; assay type: in vitro ADME; conditions: African green monkey, VERO-E6 cells; VERO-E6, 60 min incubation, 50 μM at t = 0; read-out: Kp (intracellular accumulation ratio IC/EC)
Excerpt: as §1, §2, §4, §5, §6, §7

Row | SMILES | Kp at 1 h, 50 µM [1] | EC (extracellular concentration in the media at t = 60 min) ± sd (CCRF-CEM cells) [µM] | EC (extracellular concentration in the media at t = 60 min) ± sd (VERO-E6 cells) [µM] | IC (intracellular concentration in the cells at t = 60 min) ± sd (VERO-E6 cells) | Microsomal stability Rem. at 45 min [2] [%] | Microsomal stability T1/2 [2] | EC50 (SARS-CoV-2) [µM] | CC50 at 3 days (in vitro) [µM] | Kp at 1 h, 50 µM [3] | microsomal CLint at 5 µM [2] [µL/min/mg] | half-life at 5 µM [2] [min] | IC (intracellular concentration in the cells at t = 60 min) ± sd (CCRF-CEM cells)
1 | COc1ccc(S(=O)(=O)N(C)C[C@H]2O[C@@H](n3cc(C#Cc4cnc5ccccc5c4)c4c(N)ncnc43)[C@H](O)[C@@H]2O)cc1C#N [Compound 12q] | 5320 | 0.6 ± 0.1 | 0.1 ± 0.1 | 18,533 ± 7709 μM | 101.0 ± 3.4 | Stable; also recorded: excellent stability | > 100 | > 100 |  |  |  | 
2 | CCN(C[C@H]1O[C@@H](n2cc(C#Cc3nc4ccccc4[nH]3)c3c(N)ncnc32)[C@H](O)[C@@H]1O)S(=O)(=O)c1ccc(OC)c(C#N)c1 [Compound 12a] | 188 | 34 ± 0 | 42 ± 3.2 |  | 48.7 ± 3.2 |  | > 100 | > 100 | 822 | 32.6 ± 2.1 | 44.1 ± 2.7 | 
3 | CCN(C[C@H]1O[C@@H](n2cc(C#Cc3ccc(C(N)=O)cc3)c3c(N)ncnc32)[C@H](O)[C@@H]1O)S(=O)(=O)c1ccc(OC)c(C#N)c1 [Compound 12o] | 694 | 13 ± 3 | 20.9 ± 0.8 |  | 65.9 ± 3.2 |  | > 100 | > 100 | 247 | 19.2 ± 1.7 | 74.9 ± 7.5 | 
4 | CCN(C[C@H]1O[C@@H](n2cc(C#Cc3ccc(N)nc3)c3c(N)ncnc32)[C@H](O)[C@@H]1O)S(=O)(=O)c1ccc(OC)c(C#N)c1 [Compound 12h] | 480 | 14 ± 1 | 19.5 ± 2.0 |  | 43.0 ± 0.8 |  | > 100 | > 100 | 885 | 37.8 ± 1.8 | 37.3 ± 1.8 | 
5 | COc1ccc(S(=O)(=O)N(C)C[C@H]2O[C@@H](n3cc(C#Cc4ccc(C(N)=O)cc4)c4c(N)ncnc43)[C@H](O)[C@@H]2O)cc1C#N [Compound 12r] | 897 | 12 ± 6 | 1.1 ± 0.5 | 19,777 ± 7485 μM | 80.9 ± 12.0 | Stable; also recorded: excellent stability | > 100 | > 100 |  |  |  | 10,708 ± 358 μM
6 | CCN(C[C@H]1O[C@@H](n2cc(C#Cc3cccnc3)c3c(N)ncnc32)[C@H](O)[C@@H]1O)S(=O)(=O)c1ccc(OC)c(C#N)c1 [Compound 12l] | 163 | 29 ± 0 | 17.1 ± 2.9 |  | 37.4 ± 0.5 |  | > 100 | > 100 | 225 | 40.9 ± 0.8 | 33.7 ± 0.7 | 
7 | CCN(C[C@H]1O[C@@H](n2cc(C#Cc3cnc4ccccc4c3)c3c(N)ncnc32)[C@H](O)[C@@H]1O)S(=O)(=O)c1ccc(OC)c(C#N)c1 [Compound 12e] |  | 0.2 ± 0.0 | 16.5 ± 3.6 |  | 79.3 ± 3.8 | Stable | > 100 | > 100 | 608 |  |  | 
8 | COc1ccc(S(=O)(=O)N(C)C[C@H]2O[C@@H](n3cc(C#Cc4cccnc4)c4c(N)ncnc43)[C@H](O)[C@@H]2O)cc1C#N [Compound 12s] | 604 | 15 ± 3 | 2.6 ± 2.3 | 13,578 ± 3626 μM | 50.2 ± 3.2 |  | > 100 | > 100 | 5210 | 30.5 ± 4.7 | 50.8 ± 5.1 | 
